Counter-ions that a name gives are not always drawn.
Molecular target: Factor D (Homo sapiens (Human), UniProt P00746)
Assay: biochemical
Assay type: biochemical
Settings: read-out: IC50

Sequence of Factor D (P00746 26-253): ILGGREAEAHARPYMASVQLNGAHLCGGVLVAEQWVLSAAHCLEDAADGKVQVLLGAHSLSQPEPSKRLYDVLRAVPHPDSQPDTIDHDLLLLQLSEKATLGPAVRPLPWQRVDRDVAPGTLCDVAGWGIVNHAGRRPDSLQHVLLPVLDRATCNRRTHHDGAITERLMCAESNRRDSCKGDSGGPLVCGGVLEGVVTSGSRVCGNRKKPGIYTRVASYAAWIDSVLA

Structure (SMILES) | IC50
CO[C@H]1[C@@H](C(=O)NCc2cccc(Cl)c2F)N(C(=O)Cn2cc(C(C)=O)c3cc(C)ncc32)C[C@@H]1F [Example 658, (2S,3S,4S)-1-[2-(3-Acetyl-5-methyl-pyrrolo[2,3-c]pyridin-1-yl)-acetyl]-4-fluoro-3-methoxy-pyrrolidine-2-carboxylic acid 3-chloro-2-fluoro-benzylamide formate] | 24 nM
NC(=O)n1cc(NC(=O)N2C[C@@H](N)C[C@H]2C(=O)NCc2ccccc2-c2ccccc2)c2ccccc21 [Example 51, (2S,4S)-4-Amino-pyrrolidine-1,2-dicarboxylic acid 2-[(biphenyl-2-ylmethyl)-amide] 1-[(1-carbamoyl-1H-indol-3-yl)-amide]] | 8500 nM
NC(=O)n1cc(CC(=O)N2C[C@H](F)C[C@H]2C(=O)NCc2cccc(Cl)c2F)c2ccccc21 [Example 448, 3-{2-[(2S,4R)-2-(3-Chloro-2-fluoro-benzylcarbamoyl)-4-fluoro-pyrrolidin-1-yl]-2-oxo-ethyl}-indole-1-carboxylic acid amide] | 26 nM
NC(=O)c1nn(CC(=O)N2[C@@H]3C[C@@H]3C[C@H]2C(=O)Nc2nc(Br)cs2)c2ccccc12 [Example 742, 1-{2-[(1R,3S,5R)-3-(4-Bromo-thiazol-2-ylcarbamoyl)-2-aza-bicyclo[3.1.0]hex-2-yl]-2-oxo-ethyl}-1H-indazole-3-carboxylic acid amide] | 37 nM
NC(=O)n1cc(NC(=O)N2C3CC3C[C@H]2C(=O)NCc2cccc(C(F)(F)F)c2F)c2ccccc21 (stereo partly drawn) [Example 261, (1R,3S,5R)-2-Aza-bicyclo[3.1.0]hexane-2,3-dicarboxylic acid 2-[(1-carbamoyl-1H-indol-3-yl)-amide] 3-(2-fluoro-3-trifluoromethyl-benzylamide)] | 75 nM
NC(=O)c1cn(CC(=O)N2C[C@H](F)C[C@H]2C(=O)Nc2cccc(Cl)c2F)c2ccccc12 [Example 486, 1-{2-[(2S,4R)-2-(3-Chloro-2-fluoro-phenylcarbamoyl)-4-fluoro-pyrrolidin-1-yl]-2-oxo-ethyl}-1H-indole-3-carboxylic acid amide] | 2450 nM
CC(=O)c1cn(CC(=O)N2C[C@H](F)C[C@H]2C(=O)NCc2cccc(Cl)c2F)c2ncccc12 [Example 547, (2S,4R)-1-[2-(3-Acetyl-pyrrolo[2,3-b]pyridin-1-yl)-acetyl]-4-fluoro-pyrrolidine-2-carboxylic acid 3-chloro-2-fluoro-benzylamide] | 38 nM
CN(C)C[C@H]1C[C@@H](C(=O)NCc2cccc(Cl)c2F)N(C(=O)Nc2cn(C(N)=O)c3ccccc23)C1 [Example 406, 2S,4R)-4-Dimethylaminomethyl-pyrrolidine-1,2-dicarboxylic acid 1-[(1-carbamoyl-1H-indol-3-yl)-amide]2-(3-chloro-2-fluoro-benzylamide] | 150 nM
O=C(NCc1cccc(Cl)c1F)[C@@H]1C[C@H]2C[C@H]2N1C(=O)Cn1cc(C(=O)C(F)(F)F)c2ccccc21 [Example 495, (1R,3S,5R)-2-{2-[3-(2,2,2-Trifluoro-acetyl)-indol-1-yl]-acetyl}-2-aza-bicyclo[3.1.0] hexane-3-carboxylic acid 3-chloro-2-fluoro-benzylamide] | 19 nM
CO[C@H]1[C@@H](C(=O)N[C@H](C)c2cccc(Cl)c2F)N(C(=O)Cn2nc(C(N)=O)c3cccnc32)C[C@@H]1F [Example 643, 1-(2-{(2S,3S,4S)-2-[(R)-1-(3-Chloro-2-fluoro-phenyl)-ethylcarbamoyl]-4-fluoro-3-methoxy-pyrrolidin-1-yl}-2-oxo-ethyl)-1H-pyrazolo[3,4-b]pyridine-3-carboxylic acid amide] | 25 nM
Cc1cc2c(C(N)=O)nn(CC(=O)N3[C@@H]4C[C@@H]4C[C@H]3C(=O)Nc3cccc(OC(F)(F)F)c3F)c2c(C)n1 [Example 717, 1-{2-[(1R,3S,5R)-3-(2-Fluoro-3-trifluoromethoxy-phenylcarbamoyl)-2-aza-bicyclo[3.1.0]hex-2-yl]-2-oxo-ethyl}-5,7-dimethyl-1H-pyrazolo [3,4-c]pyridine-3-carboxylic acid amide] | 31 nM
NC(=O)n1cc(NC(=O)N2C[C@H](F)C[C@H]2C(=O)NCc2cc(C(=O)O)cc(Cl)c2F)c2ccccc21 [Example 144, 3-({[(2S,4R)-1-(1-carbamoyl-1H-indol-3-ylcarbamoyl)-4-fluoro-pyrrolidine-2-carbonyl]-amino}-methyl)-5-chloro-4-fluoro-benzoic acid] | 15 nM
NC(=O)c1cn(CC(=O)N2C[C@H](F)C[C@H]2C(=O)NCc2cccc(Cl)c2F)c2cc(OC(F)F)ccc12 [Example 528, 1-{2-[(2S,4R)-2-(3-Chloro-2-fluoro-benzylcarbamoyl)-4-fluoro-pyrrolidin-1-yl]-2-oxo-ethyl}-6-difluoromethoxy-1H-indole-3-carboxylic acid amide] | 75 nM
COC[C@@H](NC(=O)[C@@H]1C[C@H]2C[C@H]2N1C(=O)Cn1cc(C(C)=O)c2cccnc21)c1cccc(Cl)c1F [Example 533, (1R,3S,5R)-2-[2-(3-Acetyl-pyrrolo[2,3-b]pyridin-1-yl)-acetyl]-2-aza-bicyclo[3.1.0] hexane-3-carboxylic acid [(S)-1-(3-chloro-2-fluoro-phenyl)-2-methoxy-ethyl]-amide] | 34 nM
CC(=O)c1cn(CC(=O)N2[C@@H]3C[C@@H]3C[C@H]2C(=O)N[C@H](C)c2cccc(Cl)c2F)c2cnccc12 [Example 641, (1R,3S,5R)-2-[2-(3-Acetyl-pyrrolo[2,3-c]pyridin-1-yl)-acetyl]-2-aza-bicyclo[3.1.0]hexane-3-carboxylic acid [(R)-1-(3-chloro-2-fluoro-phenyl)-ethyl]-amide] | 32 nM
CN(C)C[C@@H](NC(=O)[C@@H]1C[C@@H](F)CN1C(=O)Nc1cn(C(N)=O)c2ccccc12)c1cccc(Cl)c1F [Example 248, (2S,4R)-4-Fluoro-pyrrolidine-1,2-dicarboxylic acid 1-[(1-carbamoyl-1H-indol-3-yl)-amide] 2-{[(S)-1-(3-chloro-2-fluoro-phenyl)-2-dimethylamino-ethyl]-amide}] | 119 nM
CO[C@H]1[C@@H](C(=O)NC2(c3cccc(Cl)c3F)CC2)N(C(=O)Cn2nc(C(C)=O)c3ccncc32)C[C@@H]1F [Example 631, (2S,3S,4S)-1-[2-(3-Acetyl-pyrazolo[3,4-c]pyridin-1-yl)-acetyl]-4-fluoro-3-methoxy-pyrrolidine-2-carboxylic acid [1-(3-chloro-2-fluoro-phenyl)-cyclopropyl]-amide] | 11 nM
CNC(=O)n1cc(NC(=O)N2[C@@H]3C[C@@H]3C[C@H]2C(=O)N[C@H](COC)c2cccc(Cl)c2F)c2ccccc21 [Example 270, (1R,3S,5R)-2-Aza-bicyclo[3.1.0]hexane-2,3-dicarboxylic acid 3-{[(S)-1-(3-chloro-2-fluoro-phenyl)-2-methoxy-ethyl]-amide} 2-[(1-methylcarbamoyl-1H-indol-3-yl)-amide]] | 54 nM
NC(=O)n1cc(NC(=O)N2C[C@@H](N)C[C@H]2C(=O)NCc2ccc(O)cc2)c2ccccc21 [Example 47, (2S,4S)-4-Amino-pyrrolidine-1,2-dicarboxylic acid 1-[(1-carbamoyl-1H-indol-3-yl)-amide] 2-(4-hydroxy-benzylamide)] | 8950 nM

From patent US9085555B2, “Complement pathway modulators and uses thereof” (priority 2011, dated 2015)
